Key:
NRas mRNA = NRas mRNA expression in HEK-293 cells, branched DNA assay; type: cell-based, human; parameters: NRAS max inhibition: unit not given here; settings: for IC20 / IC50 / IC80 / max. inhib. [%]:: HEK293 cells: dose-response; for NRAS max inhibition: Table 6
Experimental: The ASOs of the present disclosure were tested for their ability to reduce NRas mRNA expression in HEK-293 cells. The HEK-293 cells were grown in cell culture media and seeded onto a 96 well plate at a density of 20,000 cells/well. ASOs were tested in two separate cohorts: 2 doses or 5 doses were given to the HEK-293 cells (See TABLES 4, 5 and 6) at final concentrations of 20 nM and 2 nM respectively. The assay used Lipofectamine2000 transfection and a 48 hr treatment cycle, with incubation at 37° C. and 5% C02. Analysis of the mRNA expression was then carried out using a branched DNA assay.

GAPDH = GAPDH inhibition in HEK-293 cells, same assay; type: cell-based, human; parameters: GAPDH max inhibition: unit not given here; settings: for 2D GAPDH 20 nM inhibition: 2D (dual-dose); for GAPDH max inhibition: Table 6

Row | Substance | IC20 (NRas mRNA) | IC50 (NRas mRNA) | IC80 (NRas mRNA) | max. inhib. [%]: (NRas mRNA) | NRAS max inhibition (NRas mRNA) | 2D GAPDH 20 nM inhibition (GAPDH) | GAPDH max inhibition (GAPDH)
1 | 185 (TCCGAGAGTGTTGCCTCGCA; chemistry not given here) [compound 185] | 0.074 nM | 0.349 nM | 3.8 nM | 85.4% | – | – | –
2 | 200 (GTTATGGTCAGTTAATAGAA; chemistry not given here) [compound 200] | 0.041 nM | 0.16 nM | 0.666 nM | 97.6% | 98.68 | 33.52 | 38.68
3 | 201 (CACCAGGGAACATCTCGGGG; chemistry not given here) [compound 201] | 0.024 nM | 0.1 nM | 0.455 nM | 97.2% | 98.45 | 16.86 | 45.30
4 | 206 (GAGCCTGGTTGGAAGCTGCA; chemistry not given here) [compound 206] | 0.117 nM | 0.471 nM | 2.58 nM | 90.9% | 94.95 | 40.87 | 44.21
5 | 218 (GTTACGCTGTTTGGCCG; chemistry not given here) [compound 218] | 0.139 nM | 0.427 nM | 1.94 nM | 88.0% | 90.00 | 28.11 | 25.71
6 | 223 (CGCTGTTTGGCCGGGCAGAA; chemistry not given here) [compound 223] | 0.121 nM | 0.581 nM | 35.4 nM | 80.8% | 85.75 | 20.53 | 18.44
7 | 224 (GCTGTTTGGCCGGGCAGAAA; chemistry not given here) [compound 224] | 0.639 nM | 1.93 nM | – | 72.0% | – | – | –
8 | 227 (GTTTGGCCGGGCAGAAACTC; chemistry not given here) [compound 227] | 0.087 nM | 0.413 nM | 4.05 nM | 86.3% | 87.95 | 24.56 | 18.30
9 | 231 (GCCGGGCAGAAACTCCGCTG; chemistry not given here) [compound 231] | 0.18 nM | 0.538 nM | 2.1 nM | 90.4% | 93.63 | 36.92 | 29.21
10 | 238 (CTCCCCGAGATGTTCCCTGG; chemistry not given here) [compound 238] | 0.139 nM | 0.646 nM | 4.79 nM | 88.9% | 90.92 | 22.48 | 26.33
11 | 239 (AGGCTCCCCGAGATGTTCCC; chemistry not given here) [compound 239] | 0.027 nM | 0.159 nM | 1.46 nM | 90.4% | 94.35 | 39.01 | 37.62
12 | 247 (AAACAGCGTAACCCCTTCTT; chemistry not given here) [compound 247] | 0.122 nM | 0.561 nM | 4.14 nM | 88.8% | 90.09 | 25.39 | 25.35
13 | 248 (CAAACAGCGTAACCCCTTCT; chemistry not given here) [compound 248] | 0.051 nM | 0.288 nM | 2.4 nM | 91.0% | 93.72 | 30.77 | 37.96

— US20220354963A1, “EXTRACELLULAR VESICLE LINKED TO MOLECULES AND USES THEREOF” (Codiak BioSciences, Inc., priority 2019, published 2022)
